The text below walks through data of article PMC10589286, “Insights into the missing apiosylation step in flavonoid apiosides biosynthesis of Leguminosae plants” (Nature Communications, 2023).

One series deals with T1, SsApiGT (Spatholobus suberectus, UniProt A0AA51YHU4).
T1 construct: full length, synthesized gene, pET-28a(+), E. coli BL21(DE3), nickel-purified
T1 sequence (A0AA51YHU4 1-448): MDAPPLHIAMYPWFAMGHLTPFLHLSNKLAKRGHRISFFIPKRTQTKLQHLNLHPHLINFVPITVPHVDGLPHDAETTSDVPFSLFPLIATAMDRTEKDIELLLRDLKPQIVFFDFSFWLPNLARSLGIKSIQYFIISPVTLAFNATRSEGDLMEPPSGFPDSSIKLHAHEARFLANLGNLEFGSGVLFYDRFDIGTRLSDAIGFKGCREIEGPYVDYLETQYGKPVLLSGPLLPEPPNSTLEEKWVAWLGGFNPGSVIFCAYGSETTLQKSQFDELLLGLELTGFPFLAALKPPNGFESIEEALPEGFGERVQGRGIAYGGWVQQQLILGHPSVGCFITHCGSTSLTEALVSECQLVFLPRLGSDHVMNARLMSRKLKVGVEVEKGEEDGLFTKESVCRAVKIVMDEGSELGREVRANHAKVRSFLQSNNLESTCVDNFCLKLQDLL
As to the kind of experiment: enzyme catalysis, LC/MS. It is filed as biochemical. To be noted: sugar donor supplied by UAXS system; acceptor only in figure.

The target in another series is T2, GgApiGT (Glycyrrhiza glabra, UniProt A0AA51YKR8).
T2 construct: full length, pET-28a(+), E. coli BL21(DE3), nickel-purified
T2 sequence (A0AA51YKR8 1-454): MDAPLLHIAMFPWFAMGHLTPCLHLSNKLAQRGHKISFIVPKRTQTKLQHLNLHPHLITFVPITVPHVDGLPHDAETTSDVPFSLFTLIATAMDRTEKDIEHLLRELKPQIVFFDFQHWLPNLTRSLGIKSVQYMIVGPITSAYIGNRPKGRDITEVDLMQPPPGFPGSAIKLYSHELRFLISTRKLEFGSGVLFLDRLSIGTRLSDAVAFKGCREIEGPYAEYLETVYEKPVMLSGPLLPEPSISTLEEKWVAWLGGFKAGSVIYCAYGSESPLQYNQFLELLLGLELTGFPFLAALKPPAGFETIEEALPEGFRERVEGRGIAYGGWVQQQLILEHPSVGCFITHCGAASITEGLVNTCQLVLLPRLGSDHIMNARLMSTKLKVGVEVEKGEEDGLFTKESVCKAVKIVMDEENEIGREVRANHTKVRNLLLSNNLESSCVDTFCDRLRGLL
As to the kind of experiment: enzyme catalysis, LC/MS. It is filed as biochemical. The note with it: sugar donor supplied by UAXS system; acceptor only in figure.

The next series deals with T3, PtApiGT (Pueraria montana, UniProt A0AA51YHU3).
T3 construct: full length, pET-28a(+), E. coli BL21(DE3), nickel-purified
T3 sequence (A0AA51YHU3 1-457): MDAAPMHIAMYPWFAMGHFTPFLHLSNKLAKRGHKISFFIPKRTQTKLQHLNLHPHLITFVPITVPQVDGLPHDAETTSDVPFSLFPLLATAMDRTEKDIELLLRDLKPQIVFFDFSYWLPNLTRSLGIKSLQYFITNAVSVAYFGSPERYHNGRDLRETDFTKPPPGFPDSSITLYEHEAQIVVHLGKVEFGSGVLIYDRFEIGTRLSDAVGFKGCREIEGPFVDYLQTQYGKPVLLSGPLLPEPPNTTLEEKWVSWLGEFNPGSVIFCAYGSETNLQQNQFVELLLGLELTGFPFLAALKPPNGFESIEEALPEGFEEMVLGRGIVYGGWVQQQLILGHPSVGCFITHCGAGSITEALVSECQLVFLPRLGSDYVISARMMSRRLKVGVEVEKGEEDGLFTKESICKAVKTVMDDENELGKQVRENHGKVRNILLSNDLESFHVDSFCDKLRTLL
As to the kind of experiment: enzyme catalysis, LC/MS. It is filed as biochemical. The note with it: sugar donor supplied by UAXS system; acceptor only in figure.

The target of another series is T4, GiApiGT (Glycyrrhiza inflata, UniProt A0AA51YKD5).
T4 construct: full length, pET-28a(+), E. coli BL21(DE3), nickel-purified
T4 sequence (A0AA51YKD5 1-454): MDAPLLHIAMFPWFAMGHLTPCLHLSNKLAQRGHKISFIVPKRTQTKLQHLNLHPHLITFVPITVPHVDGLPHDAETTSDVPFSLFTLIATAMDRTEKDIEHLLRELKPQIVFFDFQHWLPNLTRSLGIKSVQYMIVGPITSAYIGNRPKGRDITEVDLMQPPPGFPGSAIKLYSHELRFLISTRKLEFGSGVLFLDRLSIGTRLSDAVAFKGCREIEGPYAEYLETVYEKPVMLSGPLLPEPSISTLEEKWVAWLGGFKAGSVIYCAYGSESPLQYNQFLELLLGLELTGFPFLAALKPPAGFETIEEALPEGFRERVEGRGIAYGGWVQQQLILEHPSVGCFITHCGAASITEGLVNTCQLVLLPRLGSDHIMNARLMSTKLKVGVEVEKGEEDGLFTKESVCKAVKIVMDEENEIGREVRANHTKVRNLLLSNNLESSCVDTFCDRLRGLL
As to the kind of experiment: enzyme catalysis, LC/MS. It is filed as biochemical. The note with it: sugar donor supplied by UAXS system; acceptor only in figure.

A further series concerns the target T5, GuApiGT (Glycyrrhiza uralensis, UniProt A0AA51Z2W4, DEL371-371/H373Q).
T5 construct: full length, 454 aa (ORF 1365 bp), pET-28a(+) His-tagged, E. coli BL21(DE3), nickel-purified
As to the kind of experiment: HPLC/MS conversion. It is filed as biochemical. The note with it: 0.5 mM UDP-Xyl, acceptor isoliquiritin (2) 0.1 mM, pH 8.0, 37 °C, 3 h; printed S371/H373Q (S371 deleted).

Substrate in series [1]: O=C(/C=C/c1ccc(O[C@@H]2O[C@H](CO)[C@@H](O)[C@H](O)[C@H]2O)cc1)c1ccc(O)cc1O
As to the kind of experiment: HPLC, Michaelis-Menten fit. It is filed as biochemical, Glycyrrhiza uralensis. To be noted: 480 µmol/L saturated UDP-apiose, pH 8.0 phosphate, 37 °C, 15 min.

T5 sequence (A0AA51Z2W4 entry or part of it DEL371-371/H373Q): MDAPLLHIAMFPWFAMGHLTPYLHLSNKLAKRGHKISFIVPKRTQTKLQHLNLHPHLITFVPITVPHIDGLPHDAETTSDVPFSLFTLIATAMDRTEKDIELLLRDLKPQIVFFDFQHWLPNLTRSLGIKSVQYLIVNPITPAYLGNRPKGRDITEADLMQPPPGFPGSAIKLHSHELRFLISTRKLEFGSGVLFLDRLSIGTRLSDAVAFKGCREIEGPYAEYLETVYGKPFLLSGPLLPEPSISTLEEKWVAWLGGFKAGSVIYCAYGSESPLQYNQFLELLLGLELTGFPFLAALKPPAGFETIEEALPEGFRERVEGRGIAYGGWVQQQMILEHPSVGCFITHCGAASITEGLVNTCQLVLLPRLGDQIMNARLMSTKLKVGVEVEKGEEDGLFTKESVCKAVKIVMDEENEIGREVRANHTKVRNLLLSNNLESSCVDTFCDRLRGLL

`O=c1ccn([C@@H]2O[C@H](COP(=O)(O)OP(=O)(O)O[C@H]3OC[C@](O)(CO)[C@H]3O)[C@@H](O)[C@H]2O)c(=O)[nH]1` [UDP-Api]: the “enzyme catalysis, LC/MS” value at SsApiGT, at GgApiGT, on PtApiGT and on GiApiGT was “identified them as apiosyltransferases by enzyme catalysis reactions” in each case.
Consider `O=c1ccn([C@@H]2O[C@H](COP(=O)(O)OP(=O)(O)O[C@H]3OC[C@@H](O)[C@H](O)[C@H]3O)[C@@H](O)[C@H]2O)c(=O)[nH]1` [UDP-Xyl], for which the HPLC/MS conversion entry on GuApiGT was “the S371/H373Q mutant could accept UDP-Xyl as sugar donor”.

B1: GuApiGT (Glycyrrhiza uralensis) (protein)
chain: MDAPLLHIAMFPWFAMGHLTPYLHLSNKLAKRGHKISFIVPKRTQTKLQHLNLHPHLITFVPITVPHIDGLPHDAETTSDVPFSLFTLIATAMDRTEKDIELLLRDLKPQIVFFDFQHWLPNLTRSLGIKSVQYLIVNPITPAYLGNRPKGRDITEADLMQPPPGFPGSAIKLHSHELRFLISTRKLEFGSGVLFLDRLSIGTRLSDAVAFKGCREIEGPYAEYLETVYGKPFLLSGPLLPEPSISTLEEKWVAWLGGFKAGSVIYCAYGSESPLQYNQFLELLLGLELTGFPFLAALKPPAGFETIEEALPEGFRERVEGRGIAYGGWVQQQMILEHPSVGCFITHCGAASITEGLVNTCQLVLLPRLGSDHIMNARLMSTKLKVGVEVEKGEEDGLFTKESVCKAVKIVMDEENEIGREVRANHTKVRNLLLSNNLESSCVDTFCDRLRGLL
notes: full length, 454 aa (ORF 1365 bp), pET-28a(+) His-tagged, E. coli BL21(DE3), nickel-purified
By Km is commonly meant the concentration of substrate that gives half-maximal velocity. As a reminder, the kcat is the number of substrate molecules converted per active site and unit of time at saturation. For B1, in series [1], the Km came to 2.59 ± 0.23 µM and the turnover number (kcat) turned out to be 0.11 s⁻¹.
